Source: patent US20240059698A1 (Accutar Biotechnology Inc., priority 2022, published 2024)

Experiments:
Format in all cases: cell-based
HCC827 cells = experiment: Cell growth inhibition (CellTiter-Glo), HCC827; settings: Homo sapiens, 72 h, 3 days
Procedure, shortened: (§1)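 HCC827 cells in RPMI and A431 cells in DMEM (both 10% FBS) were seeded at 5000 cells/well and left overnight. They were then exposed to compound dilutions for 3 days at 37° C. Viability was read by CellTiter-Glo luminescence.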

[1] = test system: HCC827-SVD cells (human EGFR exon 20 insertion mutant D770_N771insSVD); experiment: Cell growth inhibition (CellTiter-Glo), HCC827-SVD; settings: 72 h, 3 days
Procedure, shortened: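 HCC827 cells with endogenous EGFR knocked out and lentivirally expressing the insertion mutant (single clone) were seeded at 5000 cells/well in RPMI with 10% FBS. After overnight, compounds added; 3 days at 37 °C, then CellTiter-Glo luminescence.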

[2] = test system: HCC827-ASV cells (human EGFR exon 20 insertion mutant V769_D770insASV); experiment: Cell growth inhibition (CellTiter-Glo), HCC827-ASV; settings: 72 h, HCC827-ASV cells, 3 days, CellTiter-Glo, read-out: Cell growth inhibition, GI50 (nM) HCC827-ASV
Method: Generation of HCC827-SVD, HCC827-ASV, and HCC827-YVMA cell lines. The HCC827-SVD cell line was generated by first transducing HCC827 cells (ATCC) with lentiviral particles expressing codon-optimized human EGFR exon 20 insertion mutant D770_N771insSVD, and then selecting under 5 µg/mL puromycin treatment for a week. The resulting cells were further transduced with lentiviral particles carrying EGFR sgRNA and CAS9 to knockout the endogenous alleles of EGER and then selected under 500 µg/mL hygromycin B treatment for two weeks. The limiting dilution approach was used to subsequently generate the single clone of the HCC827-SVD stable cell line. Endogenous EGFR knockout was confirmed by Sanger sequencing of cell genomic DNA, and expression of exogenous mutant EGFR was verified by Western blot analysis.
HCC827-ASV and HCC827-YVMA cell lines were generated in a similar approach as HCC827-SVD, except that HCC827 cells (ATCC) were first transduced with lentiviral particles expressing codon-optimized human EGFR exon 20 insertion mutant V769_D770insASV and human ERBB2 exon20 insertion mutant A775_G776ins YVMA, respectively.
2. Cell Growth Inhibition for HCC827, HCC827-SVD, HCC827-ASV, HCC827-YVMA, and A431.
HCC827(ATCC), HCC827-SVD, HCC827-ASV, and HCC827-YVMA cells were seeded in 96-well plates at 5000 cells/well in 90 μL of RPMI growth medium containing 10% FBS and 1% Penicillin Streptomycin. A431 (ATCC) cells were seeded in 96-well plates at 5000 cells/well in 90 μL of DMEM growth medium containing 10% FBS and 1% Penicillin Streptomycin. Cells were incubated at 37° C. overnight and then administered with 10 μL 10× test compounds prepared in the growth medium at various concentrations. After administration of the compounds, cells were incubated at 37° C. for 3 days. Before the CellTiter-Glo assay, the plates were equilibrated at room temperature for approximately 30 minutes. 100 ul of CellTiter-Glo reagent (Promega) was added to each well. The plates were then incubated at room temperature for 10 minutes and luminescence was recorded by the EnSight® multimode plate reader (PerkinElmer). Table 7 listed selected compounds in cellular growth assay.

[3] = test system: HCC827-YVMA cells (human ERBB2 exon20 insertion mutant A775_G776ins YVMA); experiment: Cell growth inhibition (CellTiter-Glo), HCC827-YVMA; settings: 72 h, HCC827-YVMA cells, 3 days, CellTiter-Glo, read-out: Cell growth inhibition, GI50 (nM) HCC827-YVMA
Procedure, shortened: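 HCC827 cells transduced with lentiviral codon-optimized mutant (ERBB2 A775_G776insYVMA or EGFR V769_D770insASV), endogenous EGFR knocked out by CRISPR, single clone selected. Cells seeded overnight in RPMI/10% FBS, then exposed to serially diluted compounds at 37 °C for 3 days; viability read by CellTiter-Glo luminescence.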

A431 cells = experiment: Cell growth inhibition (CellTiter-Glo), A431; settings: Homo sapiens, A-431, 72 h, 3 days
Procedure, shortened: as §1

Row | SMILES | GI50 (HCC827 cells) [nM] | GI50 [1] [nM] | GI50 [2] [nM] | GI50 [3] [nM] | GI50 (A431 cells) [nM]
1 | C=CC(=O)N1CCC(c2n[nH]c3ncnc(Nc4ccc(Oc5ccnc(N6CC7CC7C6)c5)cc4F)c23)CC1 (stereo not drawn) [Compound 180, 1-(4-(4-((4-((2-(3-azabicyclo[3.1.0]hexan-3-yl)pyridin-4-yl)oxy)-2-fluorophenyl)amino)-1H-pyrazolo[3,4-d]pyrimidin-3-yl)piperidin-1-yl)prop-2-en-1-one] | 200 to 1000 | 50 to 200 | 50 to 200 | < 50 | > 1000
2 | C=CC(=O)N1CCC(c2ccn3ncnc(Nc4ccc(Oc5ccn(Cc6cc(C)ccn6)n5)cc4F)c23)CC1 [Compound 197, 1-(4-(4-((2-fluoro-4-((1-((4-methylpyridin-2-yl)methyl)-1H-pyrazol-3-yl)oxy)phenyl)amino)pyrrolo[2,1-f][1,2,4]triazin-5-yl)piperidin-1-yl)prop-2-en-1-one] | > 1000 | > 1000 | > 1000 | 200 to 1000 | > 1000
3 | C=CC(=O)N1CCC(c2ccn3ncnc(Nc4ccc(OCc5ccccn5)c(Cl)c4)c23)CC1 [Compound 198, 1-(4-(4-((3-chloro-4-(pyridin-2-ylmethoxy)phenyl)amino)pyrrolo[2,1-f][1,2,4]triazin-5-yl)piperidin-1-yl)prop-2-en-1-one] | < 50 | < 50 | < 50 | < 50 | < 50
4 | C=CC(=O)N1CCC(c2ccn3ncnc(Nc4ccc(Oc5ccnc(N6C[C@@H](C)O[C@@H](C)C6)c5)cc4F)c23)CC1 [Compound 199, 1-(4-(4-((4-((2-((2R,6S)-2,6-dimethylmorpholino)pyridin-4-yl)oxy)-2-fluorophenyl)amino)pyrrolo[2,1-f][1,2,4]triazin-5-yl)piperidin-1-yl)prop-2-en-1-one] | 50 to 200 | < 50 | < 50 | < 50 | > 1000
5 | C=CC(=O)N1CCC(c2ccn3ncnc(Nc4ccc(Oc5ccnc(N6CCN(C)CC6)c5)cc4F)c23)CC1 [Compound 201, 1-(4-(4-((2-fluoro-4-((2-(4-methylpiperazin-1-yl)pyridin-4-yl)oxy)phenyl)amino)pyrrolo[2,1-f][1,2,4]triazin-5-yl)piperidin-1-yl)prop-2-en-1-one] | > 1000 | > 1000 | > 1000 | 200 to 1000 | > 1000
6 | C=CC(=O)N1CCC(c2ccn3ncnc(Nc4ccc(Oc5ccnc(N6CCC[C@@H](OC)C6)c5)cc4F)c23)CC1 [Compound 202, (R)-1-(4-(4-((2-fluoro-4-((2-(3-methoxypiperidin-1-yl)pyridin-4-yl)oxy)phenyl)amino)pyrrolo[2,1-f][1,2,4]triazin-5-yl)piperidin-1-yl)prop-2-en-1-one] | > 1000 | 50 to 200 | 200 to 1000 | 50 to 200 | > 1000
